Source: US20150329483A1, “Methods and Pharmaceutical Compositions for the Treatment of X-Linked Charcot-Marie-Tooth” (INSERM (Institut National de la Santé et de la Recherche …, priority 2012, published 2015)

Columns and labels:
[1] = test system: S3 fibroblasts; assay: Nuclear volume evaluation (DAPI, ImageJ) in cultured fibroblasts; type: cell-based, mouse; settings: for Nuclear Volume: S3 fibroblasts cultured 24 hrs with CamKII inhibitor, WT 8607, untreated S3 15029; for Effect on nuclear (cellular) volume, in words: S3 fibroblasts treated with inhibitor
Experimental: (§1) For the isolation of fibroblasts a small fragment of mouse ear was removed, dipped in alcohol solution, cut into small pieces in a sterile Petri dish in the presence of PBS containing fungicide (fonigizon) diluted 1/250, and transferred to 2-ml tubes containing 1 ml dissociation buffer (DMEM plus 20% FBS, 1 mg/ml BSA, 0.5 mg/ml collagenase, 0.25 mg/ml trypsin and penicillin/streptomycin). The tubes were incubated in a water bath with agitation for 1 h at 37° C. Fibroblast medium (DMEM, 10% FBS, 2 mM Gln, 100 U/ml penicillin, 100 μg/ml streptomycin) was added to each tube and the samples were centrifuged at 400 g for 10 min. The cells were re-suspended in fibroblast medium, seeded into Petri dishes and placed in an incubator at 37° C., 5% CO2. The culture medium was replaced every two days. When the cultures reached sub-confluence, the cells were trypsinized and expanded into tissue culture flasks. All experiments were performed using cells between passage numbers four and eight.
Nuclei were stained with DAPI and nuclear volume was evaluated with ImageJ software.
Nuclear volume correction. Fibroblasts from Wild type (WT) and S3 transgenic mouse have been cultured for 24 hrs with or without CamKII inhibitors (KN62 and KN93). Nuclear volume has been evaluated using the Imagej software. […] This experiment has been repeated three time.

[2] = test system: S3 cells; assay: Connexon activity of S3 cells treated with KN62 and KN93 derivatives; type: cell-based, mouse; settings: for Connexon activity at 0.1 μM / Connexon activity at 1 μM / Connexon activity at 10 μM / Connexon activity at 50 μM: 24 hours of treatment
Experimental: Animal cells and wild-type mouse cells transgenic animals S3 created in the as described in EXAMPLE 13 are cultured in 96-well microplates. We have shown that the S3 cells have an abnormality of the connexon activity due to the mutation of connexin 32 introduced in this line. […] The cells were incubated with new molecules and connexon activity was evaluated. […] Regarding KN93 derivatives most substitutions suppress the activity “correction activity connexon” molecules, excepting for a few molecules.
S3 cells were treated with various molecules, at increasing concentrations. Moreover transgenic animals of the same lineage cells and untreated transgenic animals are used as controls. The connexon activity was assessed after 24 hours of treatment. The activity is expressed in thousands of arbitrary fluorescence units. […] As a comparison we use the reference molecule KN 93 at a concentration of 10 μM.

[3] = test system: S3 fibroblasts; assay: Centrosome number per cell (γ-tubulin labelling); type: cell-based, mouse; settings: for >centro (percentage of cells with more than two centrosomes) / 2 centro (percentage of cells with two centrosomes) / 1 centro (percentage of cells with one centrosome): S3 fibroblasts cultured with inhibitor; for >centro (percentage of cells with more than two centrosomes): WT 3, untreated S3 18; for 2 centro (percentage of cells with two centrosomes): WT 18, untreated S3 22; for 1 centro (percentage of cells with one centrosome): WT 79%, untreated S3 60%; for Effect on centrosome number per cell, in words: S3 fibroblasts treated with inhibitor
Experimental: as §1
Cells were grown on glass coverslips for 24 h to allow cultures to reach 80% confluence. To measure the number of centrosomes, cells were fixed with 4% PFA, permeabilized with methanol at −20° C. for 8 min and blocked with 0.5% Triton X-100 in PBS for 30 min at RT. To detect g-tubulin, cells were incubated overnight at 4° C. with a mouse anti-g-tubulin antibody (GTU-88; Sigma) diluted 1/1000 in PBS containing 0.1% milk and 0.05% Triton X-100. After washing, the cells were incubated for 1 h at RT with Cy3-conjugated goat antimouse IgG secondary antibody (Caltag Laboratories) diluted 1/2000 in PBS containing 0.1% milk and 0.05% Triton X-100. The preparations were counterstained with DAPI in Vectashield mounting medium (Vector Laboratories). Fluorescent images were acquired with a microscope (Leica DMR) equipped with a PL APO objective.
Number of centrosomes per cell. Fibroblasts from WT and S3 have been cultured with or without CamKII inhibitors. Centrosome number per cell has been evaluated as described in methods. […] This experiment has been repeated three time.

[4] = test system: G2 transgenic line (mutated human Cx32 G12S); assay: Rotarod locomotor test, G2 transgenic line; type: in vivo, mouse
Experimental: FIG. 4. Mice from the G2 line were treated either with a placebo (4 animals) or with soluble KN93 (4 animals, 1.5 mg/kg, i.p., 1 administration per day) for one month and performances on the rotarod evaluated. Treatment was then stopped and locomotor performances evaluated one month later.
(§2) Transgenic animals received intraperitoneal injections, either with a placebo (0.9% physiological serum) or with KN 93 (1.5 mg/kg). Treatment took place every day for one month.
(§3) Locomotor ability was tested using the rotarod procedure, requiring motor coordination and balance control. A machine manufactured by Bioseb was used for this purpose. A previously used procedure (Norreel et al., 2001) was adapted and two velocities (15 and 25) were used. Briefly, each mouse underwent the same 5-day procedure. The first two days were used to train the animals (five sessions of 2-min walking at a very low speed, i.e. five rotations per minute (r.p.m.)). The last three days were used to run the test sessions. Each day, the mice performed two series of five trials, a training speed with a 1-h rest period between the two series and a 5-min rest period between two consecutive trials. The software provided by Bioseb (Sedacom v1) was used to monitor the time the animals were on the rod.
(§4) Mouse from the G2 transgenic line have been treated either with a placebo (4 animals) or with soluble KN93 (4 animals). Locomotor performances of the animals have been evaluated using the rotarod test after one month of treatment. Performances of WT and G2 treated with KN93, are not statistically different. On the contrary performances of G2 animals treated either with a placebo or with KN93 are highly statistically significant (p value<0.0001). Treatment has been stopped for one month and rotarod performances evaluated. Rotarod performances of KN 93 treated or placebo treated degrade and are not statically different.

[5] = test system: S3 fibroblasts; assay: Connexon activity, lucifer yellow uptake, 96 well plate; type: cell-based, mouse
Experimental: FIG. 3. A. Connexon activity in fibroblasts from WT, S3 and S3 treated with KN93 was monitored in a 96 well plate assay, using lucifer yellow as a fluorescent dye (see methods). Fluorescence is in arbitrary units. B, C and D. Connexon activity of WT mouse fibroblasts (B), S3 transgenic mouse (C) and S3 incubated with KN93 (D), were incubated with LY for two hours and examined under a fluorescent microscope.
One hundred thousand cells were cultured as described above for one day with or without CamKII inhibitors (KN62 or KN93 at a final concentration of 10 μM). Lucifer yellow (LY) was added to the medium (final concentration: 110 mM) and incubated for two hours. Fluorescence was recorded using a Perkin Elmer Victor 4 microplaque reader (excitation: 405 nm, emission: 535 nm).
Fibroblasts from WT and S3 (treated or not with KN93) have been cultured for 2 days in 96 wells microplaques. Lucifer yellow has been then added to the medium and fluorescence monitored after 2 hours (cell auto fluorescence and fluorescence of LY without cells, have been evaluated and substracted). This experiment has been repeated three time.

[6] = test system: S3 transgenic line (mutated human Cx32 S26L); assay: Rotarod locomotor test, S3 transgenic line; type: in vivo, mouse
Experimental: as §2, §3
as §4, with “Mouse (4)” for “Mouse”, “S3” for “G2”, “placebo” for “placebo (4 animals)”, “KN93.” for “KN93 (4 animals).”, “statistically” for “statically”

[7] = test system: CamKII; settings: cited from earlier work

COc1ccc(S(=O)(=O)N(CCO)c2ccccc2CN(C)C/C=C/c2ccc(Cl)cc2)cc1 [KN93]
Nuclear Volume [1]: 11000
Effect on nuclear (cellular) volume, in words [1]: restitution of normal cellular volume
Connexon activity, KN93 reference column ([2]; KN93 10 μM, 24 hours, WT 230, untreated S3 126-129): 191 thousands of arbitrary fluorescence units
>centro (percentage of cells with more than two centrosomes) [3]: 7%
2 centro (percentage of cells with two centrosomes) [3]: 20%
1 centro (percentage of cells with one centrosome) [3]: 73%
Effect on centrosome number per cell, in words [3]: returns to close to normal
Effect on progression of locomotor phenotype, in words ([4]; G2 animals, soluble form 1.5 mg/kg i.p. per day): significantly lowers the progression of the phenotype
Locomotor activity after treatment stopped, in words ([4]; G2 animals, treatment stopped after one month): rapid degradation of the locomotor activity ensued
Mean Minutes on rotarod, W4 treated ([4]; G2 line, 1.5 mg/kg i.p. per day for one month, T0 3.90, W4 placebo 3.20): 3.6 min
Mean Minutes on rotarod, W4 treated + 1 month arrest ([4]; G2 line, one month after stopping treatment, placebo + arrest 2.84): 2.9 min
Effect on connexon activity, in words ([5]; S3 cells treated with KN93): significantly improved though not totally restored
LY intensity ([5]; S3 fibroblasts, KN93 10 μM, fluorescence 2 hours after lucifer yellow, WT 63, untreated S3 17): 28 +/− 9 arbitrary units
Degradation of locomotor capacities, in words ([6]; S3 animals, soluble form 1.5 mg/kg i.p. per day): lowered
Locomotion after stopping the treatment, in words ([6]; S3 animals, treatment stopped): strong degradation of locomotion
Mean Minutes on rotarod, W4 treated ([6]; S3 line, 1.5 mg/kg i.p. per day for one month, T0 2.7, W4 placebo 2.1): 2.5 min
Mean Minutes on rotarod, W4 treated + 1 month arrest ([6]; S3 line, one month after stopping treatment, placebo + arrest 1.5): 1.41 min

COc1ccc(S(=O)(=O)Nc2ccccc2CN(C)C/C=C/c2ccc(Cl)cc2)cc1 [KN92]
>centro (percentage of cells with more than two centrosomes) [3]: 20%
2 centro (percentage of cells with two centrosomes) [3]: 20%
1 centro (percentage of cells with one centrosome) [3]: 60%
Effect on centrosome number per cell, in words [3]: unchanged
CamKII inhibitory activity, in words [7]: no CamKII inhibitory activity

COc1ccc(S(=O)(=O)N(CCO)c2ccccc2CN(C)C/C=C/c2ccccc2)cc1 [CM08-16, 2-hydroxy-S-(4-methoxyphenyl)-N′-[2-({methyl[(2E)-3-phenylprop-2-en-1-yl]amino}methyl)phenyl]ethane-1-sulfonamido]
Connexon activity at 0.1 μM [2]: 131 thousands of arbitrary fluorescence units
Connexon activity at 1 μM [2]: 142 thousands of arbitrary fluorescence units
Connexon activity at 10 μM [2]: 159 thousands of arbitrary fluorescence units
Connexon activity at 50 μM [2]: 160 thousands of arbitrary fluorescence units

CN([C@@H](Cc1ccc(OS(=O)(=O)c2cccc3cnccc23)cc1)C(=O)N1CCN(c2ccccc2)CC1)S(=O)(=O)c1cccc2cnccc12 [KN62, 1-[N,Obis(5-isoquinolinesulfonyl)-N-methyl-L-tyrosyl]-4-phenylpiperazine]
Nuclear Volume [1]: 10100
Effect on nuclear (cellular) volume, in words [1]: restitution of normal cellular volume
>centro (percentage of cells with more than two centrosomes) [3]: 6%
2 centro (percentage of cells with two centrosomes) [3]: 32%
1 centro (percentage of cells with one centrosome) [3]: 62%
Effect on centrosome number per cell, in words [3]: returns to close to normal

COc1ccc(S(=O)(=O)N(CCO)c2ccccc2CN(C)Cc2ccc3ccccc3c2)cc1 [CM08-18, 2-hydroxy-S-(4-methoxyphenyl)-N′-(2-{[methyl(naphthalen-2-ylmethyl)amino]methyl}phenyl)ethane-1-sulfonamido]
Connexon activity at 0.1 μM [2]: 125 thousands of arbitrary fluorescence units
Connexon activity at 1 μM [2]: 150 thousands of arbitrary fluorescence units
Connexon activity at 10 μM [2]: 162 thousands of arbitrary fluorescence units
Connexon activity at 50 μM [2]: 174 thousands of arbitrary fluorescence units

COc1ccc(S(=O)(=O)N(CCO)c2ccccc2CN(C)CCCc2ccc(Cl)cc2)cc1 [CM08-40, N-[2-({[3-(4-chlorophenyl)propyl](methyl)amino}methyl)phenyl]-2-hydroxy-S′-(4-methoxyphenyl)ethane-1-sulfonamido]
Connexon activity at 0.1 μM [2]: 169 thousands of arbitrary fluorescence units
Connexon activity at 1 μM [2]: 169 thousands of arbitrary fluorescence units
Connexon activity at 10 μM [2]: 167 thousands of arbitrary fluorescence units
Connexon activity at 50 μM [2]: 162 thousands of arbitrary fluorescence units

COc1ccc(S(=O)(=O)N(CCO)c2ccccc2CN(C)Cc2ccccc2)cc1 [CM08-33, N-(2-{[benzyl(methyl)amino]methyl}phenyl)-2-hydroxy-S′-(4-methoxyphenyl)ethane-1-sulfonamido]
Connexon activity at 0.1 μM [2]: 162 thousands of arbitrary fluorescence units
Connexon activity at 1 μM [2]: 196 thousands of arbitrary fluorescence units
Connexon activity at 10 μM [2]: 189 thousands of arbitrary fluorescence units
Connexon activity at 50 μM [2]: 180 thousands of arbitrary fluorescence units
